Test results published in patent US20180280393A1, “METHODS AND COMPOSITIONS FOR TREATMENT OF METASTATIC AND REFRACTORY CANCERS AND TUMORS” (The Wistar Institute of Anatomy and Biology, priority 2015, published 2018).
Like-named read-outs stand apart in the source and are kept apart here.

Columns and labels:
[1] = test system: A2780 ovarian cancer cells; experiment: Molecular screening of compounds on A2780 cell proliferation (resazurin fluorescence); format: cell-based, human; settings: A2780 cells cultured 3 days, N/A = ambiguous curve fits or EC50 greater than the highest concentration tested (25 μM), read-out: EC5 - A2780 ovarian cancer cells
Method: Cell proliferation assays—Cells were plated in 96-well plates. Compounds were added the next morning, and cell proliferation was measured 48 hrs later with the […] 96 MTS assay (Promega) according to the manufacturer's instructions. Molecular screening of compounds on A2780 cells was performed by adding compounds the morning after plating in 384-well plates and measuring proliferation 72 hrs later with resazurin fluorescence. Normalized percent inhibition (NPI) was calculated with respect to fluorescence values obtained with DMSO negative control and doxorubicin (5 μM) positive control as NPI=100%*(DMSO−compound)/(DMSO−doxorubicin). TCR ligation of human CD8 T cells
(§1) EC50 values were calculated from normalized percent inhibition data using non-linear curve fitting in PRISM software.

human T cells [2] = experiment: ConA-induced activation and expansion of human T cells (high-throughput screen); format: cell-based; settings: human T cells activated with ConA for 7 days, N/A = ambiguous curve fits or EC50 greater than the highest concentration tested (25 μM)
Method: T cell stimulation—For human T cell proliferation assays, peripheral blood lymphocytes were obtained by leukapheresis/elutriation and Miltenyi bead-purified and K562 cells expressing human CD32 were generated as previously described^41. […] PBMCs were labeled with CELLTRACE Violet stain (Invitrogen) according to the manufacturer's instructions and cocultured with loaded K32 cells at a 10:1 T cells:K32 ratio or activated with ConA (2 μg/ml, Sigma). Proliferation of stimulated T cells was determined 7 days later by FACS and Division Index was calculated using FlowJo software.
as §1

human T cells [3] = experiment: aAPC (anti-CD3/anti-CD28)-induced human T cell proliferation, CELLTRACE; format: cell-based; settings: 7 days
Method: Four plots show proliferation of CD8 cells after 7 days is shown. […] Proliferation of CD8 cells after 7 days is shown. T cell stimulation-For human T cell proliferation assays, peripheral blood lymphocytes were obtained by leukapheresis/elutriation and Miltenyi bead-purified and K562 cells expressing human CD32 were generated as previously described^41. […] were γ-irradiated (100 Gy) and loaded with anti-CD3 (500 ng/ml, clone OKT3; eBioscience) plus anti-CD28 (500 ng/ml, clone 15E8; EMD Millipore) antibodies at room temperature for 10 minutes. PBMCs were labeled with CELLTRACE Violet stain (Invitrogen) according to the manufacturer's instructions and cocultured with loaded […] cells at a 10:1 T cells:[…] ratio or activated with ConA (2 μg/ml, Sigma). Proliferation of stimulated T cells was determined 7 days later by FACS and Division Index was calculated using FlowJo software.

human T cells [4] = experiment: Cytokine rescue of human T cell proliferation from MEK inhibition; format: cell-based; settings: GDC0973 or trametinib
Method: Proliferation of CD8 T cells after 7 days is shown.
FIG. 2D is a graph showing that human PBMCs were activated as in FIG. 2B with the indicated compounds, BKM120=2 μM.
Reported are percentages of cells that proliferated with GDC0973 relative to vehicle treatment with the same cytokines after 7 days. Stains are not depicted.
T cell stimulation—For human T cell proliferation assays, peripheral blood lymphocytes were obtained by leukapheresis/elutriation and Miltenyi bead-purified and K562 cells expressing human CD32 were generated as previously described^41. K32 were γ-irradiated (100 Gy) and loaded with anti-CD3 (500 ng/ml, clone OKT3; eBioscience) plus anti-CD28 (500 ng/ml, clone 15E8; EMD Millipore) antibodies at room temperature for 10 minutes. PBMCs were labeled with CELLTRACE Violet stain (Invitrogen) according to the manufacturer's instructions and cocultured with loaded K32 cells at a 10:1 T cells:K32 ratio or activated with ConA (2 μg/ml, Sigma). Proliferation of stimulated T cells was determined 7 days later by FACS and Division Index was calculated using FlowJo software.

| EC50 ([1]; Homo sapiens, 72 h) [nM] | EC50 (human T cells [2]; T-cell, 168 h) [nM] | Molecule | also measured |
| --- | --- | --- | --- |
| 19100 | 2480 | Cc1cn(-c2cc(NC(=O)c3ccc(C)c(Nc4nccc(-c5cccnc5)n4)c3)cc(C(F)(F)F)c2)cn1 [AMN107] |  |
|  | 24500 | Cn1cnc2c(F)c(Nc3ccc(Br)cc3Cl)c(C(=O)NOCCO)cc21 [AZD6244 (selumetinib), selumetinib] |  |
| 11500 | 239 | Nc1cc(C(F)(F)F)c(-c2cc(N3CCOCC3)nc(N3CCOCC3)n2)cn1 [BKM120] | proliferation of human T cells in response to aAPC coated with agonistic CD3 and CD28 antibodies (human T cells [3]): restricted the proliferation |
| 1540 |  | CS(=O)(=O)N1CCN(Cc2cc3nc(-c4cccc5[nH]ncc45)nc(N4CCOCC4)c3s2)CC1 [GDC0941] |  |
| 11400 | 1280 | CC(C)(C)c1nc(-c2cccc(NS(=O)(=O)c3c(F)cccc3F)c2F)c(-c2ccnc(N)n2)s1 [GSK436 (dabrafenib), dabrafenib] |  |
| 257 | 18.4 | CC(C)n1nc(-c2ccc3oc(N)nc3c2)c2c(N)ncnc21 [INK128] |  |
| 8480 | 3570 | Cc1c(C(=O)Nc2ccc(N3C[C@@H](C)O[C@@H](C)C3)nc2)cccc1-c1ccc(OC(F)(F)F)cc1 [LDE225] |  |
| 17200 | 2690 | O=c1cc(N2CCOCC2)oc2c(-c3ccccc3)cccc12 [LY294002] |  |
|  | 5260 | CCCS(=O)(=O)Nc1ccc(F)c(C(=O)c2c[nH]c3ncc(-c4ccc(Cl)cc4)cc23)c1F [PLX4032 (vemurafenib), vemurafenib] |  |
| 5630 | 128 | Cn1c(Nc2ccc(C(F)(F)F)cc2)nc2cc(Oc3ccnc(-c4ncc(C(F)(F)F)[nH]4)c3)ccc21 [RAF265] |  |
| 1110 | 56.7 | COC1=CC(c2cc3ccccc3[nH]2)=N/C1=C\c1[nH]c(C)cc1C [obatoclax] |  |

The next lines start with the molecule.

| Molecule | EC50 ([1]; Homo sapiens, 72 h) [nM] | EC50 (human T cells [2]; T-cell, 168 h) [nM] | also measured |
| --- | --- | --- | --- |
| CC(C)(C)c1cc(C=C(C#N)C#N)cc(Br)c1O [AG1024] |  |  | EC50 [1]: 21300 nM; EC50 (human T cells [2]): 9830 nM |
| CN1CCN(CCOc2cc(OC3CCOCC3)c3c(Nc4c(Cl)ccc5c4OCO5)ncnc3c2)CC1 [AZD0530 (saracatinib), saracatinib] |  | 422 |  |
| CCN(CCCOc1ccc2c(Nc3cc(CC(=O)Nc4cccc(F)c4)n[nH]3)ncnc2c1)CCOP(=O)(O)O [AZD1152] |  | 92.1 |  |
| Cc1cc([C@@H](C)Nc2ccccc2C(=O)O)c2nc(N3CCOCC3)cc(=O)n2c1 [AZD6482] |  | 962 |  |
| O=C(c1ccc(F)c(F)c1Nc1ccc(I)cc1F)N1CC(O)([C@@H]2CCCCN2)C1 [GDC0973] | 9040 | 4.35 | proliferation of human T cells in response to aAPC coated with agonistic CD3 and CD28 antibodies (human T cells [3]): restricted the proliferation |
| CCc1cc(Nc2nccc(-c3c(-c4ccc(OC)c(C(=O)Nc5c(F)cccc5F)c4)nc4ccccn34)n2)c(OC)cc1N1CCC(N2CCN(S(C)(=O)=O)CC2)CC1 [GSK1904529] |  |  | EC50 (human T cells [2]): 13900 nM |
| COc1ncc(-c2ccc3nccc(-c4ccnnc4)c3c2)cc1NS(=O)(=O)c1ccc(F)cc1F [GSK2126458] |  |  | EC50 [1]: 155 nM; EC50 (human T cells [2]): 0.237 nM |
| Cn1ncc(Cl)c1-c1cc(C(=O)N[C@H](CN)Cc2ccc(F)c(F)c2)oc1Cl [GSK2141795] |  |  | EC50 [1]: 2350 nM; EC50 (human T cells [2]): 96 nM |
| Cc1[nH]c2ccccc2c1CCNCc1ccc(/C=C/C(=O)NO)cc1 [LBH589] | 3610 |  |  |
| CN(C)C(=O)c1cc2cnc(Nc3ccc(N4CCNCC4)cn3)nc2n1C1CCCC1 [LEE011] |  | 2930 |  |
| Cc1cc(-c2ncc(CC(=O)Nc3ccc(-c4cnccn4)cn3)cc2C)ccn1 [LGK974] | 24400 | 9030 |  |
| NC1(c2ccc(-c3nc4ccn5c(=O)[nH]nc5c4cc3-c3ccccc3)cc2)CCC1 [MK2206] | 8750 | 446 |  |
| COc1cc(Nc2ncc3c(n2)-c2ccc(Cl)cc2C(c2c(F)cccc2OC)=NC3)ccc1C(=O)O [MLN8237] |  | 86.8 |  |
| COc1cccc2cc(-c3nc([C@H]4CC[C@H](C(=O)O)CC4)n4ncnc(N)c34)[nH]c12 [OSI027] | 5880 | 311 |  |
| CC(=O)c1c(C)c2cnc(Nc3ccc(N4CCNCC4)cn3)nc2n(C2CCCC2)c1=O [PD0332991] | 5210 |  |  |
| C=CCN(/C=C1/C(=O)O[C@H](COC)[C@@]2(C)C1=C(O)C(=O)C1=C2[C@H](OC(C)=O)C[C@]2(C)C(=O)CC[C@@H]12)CC=C [PX-866] |  |  | EC50 (human T cells [2]): 1200 nM |
| CO[C@H]1C[C@@H]2CC[C@@H](C)[C@@](O)(O2)C(=O)C(=O)N2CCCC[C@H]2C(=O)O[C@H]([C@H](C)C[C@@H]2CC[C@@H](O)[C@H](OC)C2)CC(=O)[C@H](C)/C=C(\C)[C@@H](O)[C@@H](OC)C(=O)[C@H](C)C[C@H](C)/C=C/C=C/C=C/1C [Rapamycin] |  | 4.03 |  |
| O=C(Nc1ccc2[nH]nc(-c3ccncc3)c2c1)[C@@H]1CCN(CC(=O)N2CCN(c3ccc(-c4ncccn4)cc3)CC2)C1 [SCH772984] | 7640 | 22.2 |  |
| O=C(Nc1cccc(Cl)c1)Nc1ncc(CCNc2ncnc3ccsc23)s1 [SNS314] | 5830 | 72.9 |  |
| COc1ccc(C2=N[C@@H](c3ccc(Cl)cc3)[C@@H](c3ccc(Cl)cc3)N2C(=O)N2CCNC(=O)C2)c(OC(C)C)c1 [nutlin-3a] |  |  | EC50 [1]: 16800 nM; EC50 (human T cells [2]): 1130 nM |
| IL-21: cytokine tested for rescue of T cell expansion from MEK inhibition |  |  | rescue of T cell proliferation in the presence of the MEK inhibitors (human T cells [4]): no effect |
| IL-7: recombinant mouse IL-7 (Peprotech) (protein, UniProt P10168 26-154, looked up) Interleukin-7: ECHIKDKEGKAYESVLMISIDELDKMTGTDSNCPNNEPNFFRKHVCDDTKEAAFLNRAARKLKQFLKMNISEEFNVHLLTVSQGTQTLVNCTSKEEKNVKEQKKNDACFLKRLLREIKTCWNKILKGSI |  |  | rescue of T cell proliferation in the presence of the MEK inhibitors (human T cells [4]): able to rescue T cell proliferation |
| IL-27: cytokine tested for rescue of T cell expansion from MEK inhibition (protein, UniProt Q8NEV9 29-243; Q14213 21-229, looked up) Interleukin-27 subunit alpha: FPRPPGRPQLSLQELRREFTVSLHLARKLLSEVRGQAHRFAESHLPGVNLYLLPLGEQLPDVSLTFQAWRRLSDPERLCFISTTLQPFHALLGGLGTQGRWTNMERMQLWAMRLDLRDLQRHLRFQVLAAGFNLPEEEEEEEEEEEEERKGLLPGALGSALQGPAQVSWPQLLSTYRLLHSLELVLSRAVRELLLLSKAGHSVWPLGFPTLSPQP Interleukin-27 subunit beta: RKGPPAALTLPRVQCRASRYPIAVDCSWTLPPAPNSTSPVSFIATYRLGMAARGHSWPCLQQTPTSTSCTITDVQLFSMAPYVLNVTAVHPWGSSSSFVPFITEHIIKPDPPEGVRLSPLAERQLQVQWEPPGSWPFPEIFSLKYWIRYKRQGAARFHRVGPIEATSFILRAVRPRARYYVQVAAQDLTDYGELSDWSLPATATMSLGK |  |  | rescue of T cell proliferation in the presence of the MEK inhibitors (human T cells [4]): no effect |
